What is called IC50 is the point on the concentration scale where inhibition reaches its midpoint. As usually defined, the EC50 is the concentration giving half of the maximal effect.

Data set [1] concerns the target T1, HCV NS5B genotype 1b (Con1) (Hepatitis C virus genotype 1b, UniProt Q9WMX2).
T1 construct: Each untagged protein was expressed with an 18 amino acid C-terminal truncation to enhance the solubility; made in house; host or cells: E. coli BL21(DE3), pET21a
In words: HCV NS5B RdRp enzyme assay. As to conditions: 1b enzyme, 24 hours at 30° C. Format: biochemical. The procedure:
The cDNA encoding NS5B proteins of HCV genotype 1b (Con1), a genotype 1b variant with amino acid 316 mutated from cysteine to asparagine, and genotype 2a (JFH-1), were cloned into the pET21a expression vector. Each untagged protein was expressed with an 18 amino acid C-terminal truncation to enhance the solubility. The E. coli competent cell line BL21(DE3) was used for expression of the protein. Cultures were grown at 37° C. for ˜4 hours until the cultures reached an optical density of 2.0 at 600 nm. The cultures were cooled to 20° C. and induced with 1 mM IPTG. Fresh ampicillin was added to a final concentration of 50 μg/mL and the cells were grown overnight at 20° C.
The lysis buffer consisted of 20 mM Tris-HCl, pH 7.4, 500 mM NaCl, 0.5% triton X-100, 1 mM DTT, 1 mM EDTA, 20% glycerol, 0.5 mg/mL lysozyme, 10 mM MgCl2, 15 ug/mL deoxyribonuclease I, and Complete™ protease inhibitor tablets (Roche). After addition of the lysis buffer, frozen cell pellets were resuspended using a tissue homogenizer. To reduce the viscosity of the sample, aliquots of the lysate were sonicated on ice using a microtip attached to a Branson sonicator. The sonicated lysate was centrifuged at 100,000×g for 30 minutes at 4° C. and filtered through a 0.2 μm filter unit (Corning).
The protein was purified using two sequential chromatography steps: Heparin sepharose CL-6B and polyU sepharose 4B. The chromatography buffers were identical to the lysis buffer but contained no lysozyme, deoxyribonuclease I, MgCl2 or protease inhibitor and the NaCl concentration of the buffer was adjusted according to the requirements for charging the protein onto the column. Each column was eluted with a NaCl gradient which varied in length from 5-50 column volumes depending on the column type. […] The enzyme was aliquoted and stored at −80° C.
An on-bead solid phase homogeneous assay was used in a 384-well format to assess NS5B inhibitors (WangY-K, Rigat K, Roberts S, and Gao M (2006) Anal Biochem, 359: 106-111). The biotinylated oligo dT12 primer was captured on streptavidin-coupled imaging beads (GE, RPNQ0261) by mixing primer and beads in 1× buffer and incubating at room temperature for three hours. Unbound primer was removed after centrifugation. The primer-bound beads were resuspended in 3× reaction mix (20 mM Hepes buffer, pH 7.5, dT primer coupled beads, poly A template, ^3H-UTP, and RNAse inhibitor (Promega N2515)). Compounds were serially diluted 1:3 in DMSO and aliquoted into assay plates. Equal volumes (5 μL) of water, 3× reaction mix, and enzyme in 3× assay buffer (60 mM Hepes buffer, pH 7.5, 7.5 mM MgCl2, 7.5 mM KCl, 3 mM DTT, 0.03 mg/mL BSA, 6% glycerol) were added to the diluted compound on the assay plate. Final concentration of components in 384-well assay: 0.36 nM template, 15 nM primer, 0.29 μM ^3H-UTP (0.3 μCi, 1.6 U/μL RNAse inhibitor, 7 nM NS5B enzyme, 0.01 mg/mL BSA, 1 mM DTT, and 0.33 μg/μL beads, 20 mM Hepes buffer, pH 7.5, 2.5 mM MgCl2, 2.5 mM KCl, and 0.1% DMSO.
Reactions were allowed to proceed for 24 hours at 30° C. and terminated by the addition of 50 mM EDTA (5 μL). After incubating for at least 15 minutes, plates were read on an Amersham LEADseeker multimodality imaging system.
IC50 values for compounds were determined using ten different [I]. IC50 values were calculated from the inhibition using the four-parameter logistic formula y=A+((B−A)/(1+((C/x)^D))), where A and B denote minimal and maximal % inhibition, respectively, C is the IC50, D is hill slope and x represents compound concentration.

Data set [2] has as its system genotype 1b (Con-1) HCV replicon in Huh-7 cells. In words: HCV replicon luciferase assay. Conditions: 1b replicon, Renilla luciferase, 3 days incubation. Type of data set: cell-based. The procedure:
The cell lines used to evaluate compounds consist of a human hepatocyte derived cell line (Huh-7) that constitutively expresses a genotype 1b (Con-1) HCV replicon or a genotype 1b (Con-1) HCV replicon with an asparagine replacing the cysteine at amino acid 316, or a genotype 2a (JFH-1) replicon, containing a Renilla luciferase reporter gene. These cells were maintained in Dulbecco's modified Eagle medium (DMEM) containing 10% FBS, 100 U/mL penicillin/streptomycin and 1.0 mg/mL G418.
To evaluate compound efficacy, titrated compounds were transferred to sterile 384-well tissue culture treated plates, and the plates were seeded with HCV replicon cells ([…] at a density of 2.4×10^3 cells/well) in DMEM containing 4% FBS (final DMSO concentration at 0.5%). After 3 days incubation at 37° C., cells were analyzed for Renilla Luciferase activity using the EnduRen substrate (Promega cat #E6485) according to the manufacturer's directions. Briefly, the EnduRen substrate was diluted in DMEM and then added to the plates to a final concentration of 7.5 μM. The plates were incubated for at least 1 h at 37° C. then read on a Viewlux Imager (PerkinElmer) using a luminescence program. The 50% effective concentration (EC50) was calculated using the four-parameter logistic formula noted above.

The test system of data set [3] is HCV. As to conditions: combination therapy; cited from earlier work.
Data set [4] concerns HCV. As to conditions: cited from earlier work.

T1 sequence (Q9WMX2 2420-2992): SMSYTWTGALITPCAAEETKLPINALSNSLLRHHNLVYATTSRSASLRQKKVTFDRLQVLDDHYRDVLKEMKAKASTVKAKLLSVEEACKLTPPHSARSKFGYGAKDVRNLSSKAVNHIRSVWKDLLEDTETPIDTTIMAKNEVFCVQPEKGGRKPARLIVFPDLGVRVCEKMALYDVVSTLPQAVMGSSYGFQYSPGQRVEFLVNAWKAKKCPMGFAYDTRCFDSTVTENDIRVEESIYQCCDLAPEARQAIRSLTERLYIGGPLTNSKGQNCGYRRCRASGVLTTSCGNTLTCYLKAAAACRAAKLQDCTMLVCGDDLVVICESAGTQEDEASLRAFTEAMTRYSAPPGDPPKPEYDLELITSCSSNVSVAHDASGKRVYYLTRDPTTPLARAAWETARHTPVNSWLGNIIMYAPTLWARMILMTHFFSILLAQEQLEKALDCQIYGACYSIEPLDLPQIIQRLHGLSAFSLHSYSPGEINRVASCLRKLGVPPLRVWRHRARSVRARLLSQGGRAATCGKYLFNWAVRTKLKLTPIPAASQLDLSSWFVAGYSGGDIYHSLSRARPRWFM

Take `CNC(=O)c1c(-c2ccc(F)cc2)oc2cc(CCC(F)F)c(-c3cccc(C(=O)NC45CC(C4)C5)c3)cc12`: half-maximal inhibition in data set [1] (IC50) was put at 7.19 nM. Also, the EC50 in data set [2] (Hepatitis C virus, Huh-7, 72 h) came to 3.89 nM. As to `CCC(C)c1cc2oc(-c3ccc(F)cc3)c(C(=O)NC)c2cc1-c1cccc(C(=O)NC23CC(C2)C3)c1` (stereo not shown) [drawing 294], the concentration for half-maximal inhibition (IC50) in data set [1] is 10 nM. Besides, in data set [2], the EC50 came out at 10 nM. `CNC(=O)c1c(-c2ccc(F)cc2)oc2cc(CC(N)=O)c(-c3cccc(C(=O)NC45CC(C4)C5)c3)cc12` came in with an IC50 in data set [1] of 40 nM. In addition, the midpoint of the response in data set [2] (Hepatitis C virus, Huh-7, 72 h), the EC50, lay at 20 nM. For the compound `CCCc1nc2oc(-c3ccc(F)cc3)c(C(=O)NC)c2cc1-c1ccc(F)c(C(=O)NC23CC(C2)C3)c1`, in data set [1], half-maximal inhibition (IC50) required 5.65 nM. This compound also had a concentration for a half-maximal effect (EC50) in data set [2] (Hepatitis C virus, Huh-7, 72 h) of 5.16 nM.

Turning to `CNC(=O)c1c(-c2ccc(F)cc2)oc2nc(CCC(F)(F)F)c(-c3cccc(C(=O)NC45CC(C4)C5)c3)cc12`, in data set [1], the IC50 worked out at 5.85 nM. This compound also displayed an EC50 in data set [2] (Hepatitis C virus, Huh-7, 72 h) of 4.07 nM. In turn, `CNC(=O)c1c(-c2ccc(F)cc2)oc2cc([N+](=O)[O-])c(-c3cccc(C(=O)NC45CC(C4)C5)c3)c(F)c12` showed a half-inhibitory concentration (IC50) in data set [1] of 680 nM. In data set [2] (Hepatitis C virus, Huh-7, 72 h), this compound gave an EC50 of 170 nM.

Compound `CNC(=O)c1c(-c2ccc(F)cc2)oc2cc(CCC(F)(F)F)c(-c3ccc(F)c(C(=O)NC45CC(C4)C5)c3)cc12` yielded an IC50 in data set [1] of 30 nM. This compound displayed an EC50 in data set [2] (Hepatitis C virus, Huh-7, 72 h) of 10 nM. In the same order, the values of `CNC(=O)c1c(-c2ccc(F)cc2)oc2nc(CCC(F)(F)F)c(-c3cncc(C(=O)NC45CC(C4)C5)c3)cc12` are 20 nM and 3.3 nM.

Take alpha-interferon and ribavirin: the “sustained efficacy, patients” value in data set [3] was 40%. In turn, `CNC(=O)c1c(-c2ccc(F)cc2)oc2nc(NCC(F)(F)F)c(-c3ccc(F)c(C(=O)NC45CC(C4)C5)c3)cc12` had an IC50 in data set [1] of 9.08 nM. In data set [2] (Hepatitis C virus, Huh-7, 72 h), the EC50 stood at 4.34 nM. In data set [1], `CCCc1cc2oc(-c3ccc(F)cc3)c(C(=O)NC)c2cc1-c1ccc(F)c(C(=O)NC23CC(C2)C3)c1` had a concentration for half-maximal inhibition (IC50) of 10 nM. The same compound showed an EC50 in data set [2] (Hepatitis C virus, Huh-7, 72 h) of 8.79 nM.

In turn, `CNC(=O)c1c(-c2ccc(F)cc2)oc2nc(NCC(F)(F)F)c(-c3cnc(OC)c(C(=O)NC45CC(C4)C5)c3)cc12` showed an IC50 in data set [1] of 6.54 nM. Besides, in data set [2] (Hepatitis C virus, Huh-7, 72 h), the EC50 was determined as 5.79 nM. In the same order, the values of `CNC(=O)c1c(-c2ccc(F)cc2)oc2cc(COC)c(-c3cc(C(=O)NC45CC(C4)C5)c(OC)cc3C)c(F)c12` are 30 nM and 30 nM. On to `CNC(=O)c1c(-c2ccc(F)cc2)oc2ncc(-c3ccc(F)c(C(=O)NC45CC(C4)C5)c3)cc12`, for which the IC50 in data set [1] came to 220 nM. This compound also displayed an EC50 in data set [2] (Hepatitis C virus, Huh-7, 72 h) of 50 nM.

In turn, `CNC(=O)c1c(-c2ccc(F)cc2)oc2nc(CCC(F)(F)F)c(-c3cnc(OC)c(C(=O)NC45CC(C4)C5)c3)cc12` displayed a half-maximal inhibitory concentration (IC50) in data set [1] of 3.65 nM. A half-maximal response in data set [2] (Hepatitis C virus, Huh-7, 72 h) (EC50) required 6.48 nM.

With `CNC(=O)c1c(-c2ccc(F)cc2)oc2cc(CC(=O)OC)c(-c3cccc(C(=O)NC45CC(C4)C5)c3)cc12`, the IC50 in data set [1] is 8.01 nM. This compound also showed an EC50 in data set [2] (Hepatitis C virus, Huh-7, 72 h) of 8.19 nM. In the same order, the values of `CNC(=O)c1c(-c2ccc(F)cc2)oc2nc(CCC(F)(F)F)c(-c3ccc(F)c(C(=O)NC45CC(C4)C5)c3)cc12` are 9.4 nM and 5.05 nM. For `CNC(=O)c1c(-c2ccc(F)cc2)oc2cc(CCNS(C)(=O)=O)c(-c3cccc(C(=O)NC45CC(C4)C5)c3)cc12`, 10 nM corresponded to half-maximal inhibition in data set [1] (IC50). It took 20 nM to reach a half-maximal effect in data set [2] (Hepatitis C virus, Huh-7, 72 h) (EC50). Consider `CNC(=O)c1c(-c2ccc(F)cc2)oc2cc(N(CCO)S(C)(=O)=O)c(C3CC3)cc12` [HCV-796], for which, in data set [4] (extended dosing of the combination regimens with interferon and ribavirin), the hepatic toxicity entry is reported as “hepatic toxicity observed”. Moreover, in data set [4] (patients, single agent), the “HCV RNA levels in patients” value was “showed an ability to reduce HCV RNA levels in patients”. The compound `CNC(=O)c1c(-c2ccc(F)cc2)oc2nc(NCC(F)F)c(-c3cccc(C(=O)NC45CC(C4)C5)c3)cc12` displayed an IC50 in data set [1] of 8.63 nM. In data set [2] (Hepatitis C virus, Huh-7, 72 h), this compound had a 50% effective concentration (EC50) of 4.3 nM. In the case of `CNC(=O)c1c(-c2ccc(F)cc2)oc2cc(CCC(F)(F)F)c(-c3cc(C(=O)NC45CC(C4)C5)c(F)cc3C)cc12`, in data set [1], the IC50 came to 20 nM. Also, in data set [2] (Hepatitis C virus, Huh-7, 72 h), the response was half-maximal at 20 nM (EC50). `CNC(=O)c1c(-c2ccc(F)cc2)oc2cc(NCC(F)(F)F)c(-c3ccc(OC)c(C(=O)NC45CC(C4)C5)c3)cc12` displayed an IC50 in data set [1] of 7.17 nM. In data set [2] (Hepatitis C virus, Huh-7, 72 h), this compound gave an EC50 of 5.08 nM. `CNC(=O)c1c(-c2ccc(F)cc2)oc2cc(COC)c(-c3cccc(C(=O)NC45CC(C4)C5)c3)c(F)c12`: the IC50 in data set [1] is 210 nM. In data set [2] (Hepatitis C virus, Huh-7, 72 h), this compound showed an EC50 of 7.88 nM. For the compound `CNC(=O)c1c(-c2ccc(F)cc2)oc2cc(CCNC(=O)OC)c(-c3cccc(C(=O)NC45CC(C4)C5)c3)cc12`, half-maximal inhibition in data set [1] (IC50) was put at 20 nM. Further, the EC50 in data set [2] (Hepatitis C virus, Huh-7, 72 h) came out at 20 nM.

In data set [1], `CNC(=O)c1c(-c2ccc(F)cc2)oc2nc(NCC(F)F)c(-c3ccc(F)c(C(=O)NC45CC(C4)C5)c3)cc12` showed an IC50 of 6.13 nM. A half-maximal effect in data set [2] (Hepatitis C virus, Huh-7, 72 h) (EC50) was put at 2.13 nM.

Values taken from patent publication US9738653B2, “Fused furans for the treatment of hepatitis C” (BRISTOL-MYERS SQUIBB COMPANY, priority 2013, dated 2017).
